From paper PMC2771346 (Molecular microbiology, 2009) come the findings set out here.

This assay has as its target ObgE (Escherichia coli, UniProt P42641). The assay is described as follows: inhibition of single-turnover GTP hydrolysis, TLC of gamma-32P-GTP. The class given is biochemical.

Chain of ObgE (P42641 whole entry): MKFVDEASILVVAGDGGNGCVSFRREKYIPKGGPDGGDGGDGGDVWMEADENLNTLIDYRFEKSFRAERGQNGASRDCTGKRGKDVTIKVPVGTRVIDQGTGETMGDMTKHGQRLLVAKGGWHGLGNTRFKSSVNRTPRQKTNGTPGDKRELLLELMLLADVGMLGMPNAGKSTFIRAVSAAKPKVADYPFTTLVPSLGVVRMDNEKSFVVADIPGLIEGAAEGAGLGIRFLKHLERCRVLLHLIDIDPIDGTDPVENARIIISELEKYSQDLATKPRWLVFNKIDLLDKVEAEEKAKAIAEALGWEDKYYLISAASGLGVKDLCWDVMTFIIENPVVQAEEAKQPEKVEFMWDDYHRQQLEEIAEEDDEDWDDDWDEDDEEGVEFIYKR

In turn, `Nc1nc2c(ncn2[C@@H]2O[C@H](COP(=O)(O)OP(=O)(O)O)[C@@H](O)[C@H]2O)c(=O)[nH]1` [GDP] came in with a Ki of 1600 ± 400 nM.
